Results on 1 compound are retold here after the NIST ThermoML archive (doi:10.1021/acs.jced.5b00770).

For this series the following is noted: Crystal; visual observation.

± gives the expanded uncertainty stated by the source.

On to `[Cl-].c1ccc([P+](c2ccccc2)(c2ccccc2)c2ccccc2)cc1` [tetraphenylphosphonium chloride], for which the Normal melting temperature was determined as 276.50 ± 0.9 °C.
